What is called IC50 is the concentration at which inhibition is half-maximal.

The structures appear in SMILES notation. Read-outs that look alike come from different tables or passages of the source. Where a SMILES comes first, the peptide text is derived from it. Bridges are numbered along the chain shown (N, C = ends).

The experiment has as its target T1, Aurora-A122-403-C290A/C393A (Homo sapiens, UniProt O14965, C290A/C393A).
T1 construct: Human Aurora-A kinase domain 122-403 wild-type or C290A/ C393A mutant; His tag (pET30TEV vector) (N, cleaved yes); made in house; host or cells: E. coli RIL, co-expressed with lambda phosphatase (Aurora-A); tracer by solid phase synthesis
T1 sequence (O14965 122-403 C290A/C393A): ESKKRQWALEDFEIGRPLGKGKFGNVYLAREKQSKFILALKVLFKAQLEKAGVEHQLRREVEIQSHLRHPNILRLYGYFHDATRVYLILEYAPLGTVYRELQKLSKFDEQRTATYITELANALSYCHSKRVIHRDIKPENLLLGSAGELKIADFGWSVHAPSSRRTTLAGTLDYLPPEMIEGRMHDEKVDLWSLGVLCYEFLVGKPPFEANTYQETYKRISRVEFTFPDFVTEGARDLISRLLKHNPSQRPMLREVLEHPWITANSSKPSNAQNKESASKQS
Nature of the experiment: Competition FA assay against FAM-Ahx-TACC3 522-536 tracer. Type of experiment: binding.

Where [1] appears, read: as E1, free-sulfhydryl (reduced) species, DTT 5 mM in buffer, WT control (+DTT), mean ± SD, n = 3, SD, read-out: IC50 (red).

In the case of `CC(=O)N[C@@H](CCC(=O)O)C(=O)N[C@@H](CCC(=O)O)C(=O)N[C@@H](CO)C(=O)N[C@@H](Cc1ccccc1)C(=O)N[C@@H](CCCNC(=N)N)C(=O)N[C@@H](CC(=O)O)C(=O)N1CCC[C@H]1C(=O)N[C@@H](C)C(=O)N[C@@H](CCC(=O)O)C(=O)N[C@H](C(=O)N[C@@H](CS)C(=O)NCC(=O)N[C@H](C(=O)N[C@@H](CS)C(=O)N[C@@H](C)C(N)=O)[C@@H](C)O)C(C)C` [TACC3 522-536 L532C/G535C (red)] (Ac-EESFRDPAEVCGTCA-NH2), the IC50 (as E1, free-sulfhydryl (reduced) species, DTT 5 mM in buffer, WT control (+DTT), mean ± SD, n = 3, read-out: IC50 (red)) is no less than 500 µM.

As for `CC(=O)N[C@@H](CCC(=O)O)C(=O)N[C@@H](CCC(=O)O)C(=O)N[C@@H](CO)C(=O)N[C@@H](Cc1ccccc1)C(=O)N[C@@H](CCCNC(=N)N)C(=O)N[C@@H](CC(=O)O)C(=O)N1CCC[C@H]1C(=O)N[C@@H](C)C(=O)N[C@@H](CCC(=O)O)C(=O)N[C@H](C(=O)N[C@@H](CC(C)C)C(=O)N[C@@H](CS)C(=O)N[C@H](C(=O)NCC(=O)N[C@@H](CS)C(N)=O)[C@@H](C)O)C(C)C` [TACC3 522-536 G533C/A536C (red)] (Ac-EESFRDPAEVLCTGC-NH2), under setting [1], the IC50 is 80 ± 3 µM.

Consider `CC(=O)N[C@@H](CCC(=O)O)C(=O)N[C@@H](CCC(=O)O)C(=O)N[C@@H](CO)C(=O)N[C@@H](Cc1ccccc1)C(=O)N[C@@H](CCCNC(=N)N)C(=O)N[C@H]1CSSC[C@@H](C(=O)N[C@H](C(=O)N[C@@H](CC(C)C)C(=O)NCC(=O)N[C@H](C(=O)NCC(=O)N[C@@H](C)C(N)=O)[C@@H](C)O)C(C)C)NC(=O)[C@H](C)NC(=O)[C@@H]2CCCN2C1=O` [TACC3 522-536 D527C/E530C (ox)] (Ac-EESFRCPACVLGTGA-NH2; disulfide 6-9), for which, where the note is “as E1, oxidised (disulfide) species made in situ from 10 mM stock in aqueous DMSO 33% v/v, air, overnight, WT control (+DMSO) given the same DMSO incubation, mean ± SD, n = 3, read-out: IC50 (ox)”, the IC50 was no less than 500 µM.

Turning to `CC(=O)N[C@@H](CCC(=O)O)C(=O)N[C@@H](CCC(=O)O)C(=O)N[C@@H](CO)C(=O)N[C@@H](Cc1ccc(C#N)cc1)C(=O)N[C@@H](CCCNC(=N)N)C(=O)N[C@@H](CC(=O)O)C(=O)N1CCC[C@H]1C(=O)N[C@@H](C)C(=O)N[C@@H](CCC(=O)O)C(=O)N[C@H](C(=O)N[C@@H](CC(C)C)C(=O)NCC(=O)N[C@H](C(=O)NCC(=O)N[C@@H](C)C(N)=O)[C@@H](C)O)C(C)C` [TACC3 522-536_(4-CN) -525F], the IC50 (SD, read-out: IC50) turned out to be 138 ± 8 µM.

Turning to `CC(=O)N[C@@H](CCC(=O)O)C(=O)N[C@@H](CCC(=O)O)C(=O)N[C@@H](CO)C(=O)N[C@@H](Cc1ccc(Cl)cc1)C(=O)N[C@@H](CCCNC(=N)N)C(=O)N[C@@H](CC(=O)O)C(=O)N1CCC[C@H]1C(=O)N[C@@H](C)C(=O)N[C@@H](CCC(=O)O)C(=O)N[C@H](C(=O)N[C@@H](CC(C)C)C(=O)NCC(=O)N[C@H](C(=O)NCC(=O)N[C@@H](C)C(N)=O)[C@@H](C)O)C(C)C` [TACC3 522-536_(4-Cl)525F], the IC50 (SD, read-out: IC50) came to 46 ± 8 µM.

`CC(=O)N[C@@H](CCC(=O)O)C(=O)N[C@@H](CCC(=O)O)C(=O)N[C@@H](CO)C(=O)N[C@@H](Cc1ccccc1)C(=O)N[C@@H](CS)C(=O)N[C@@H](CC(=O)O)C(=O)N1CCC[C@H]1C(=O)N[C@@H](CS)C(=O)N[C@@H](CCC(=O)O)C(=O)N[C@H](C(=O)N[C@@H](CC(C)C)C(=O)NCC(=O)N[C@H](C(=O)NCC(=O)N[C@@H](C)C(N)=O)[C@@H](C)O)C(C)C` [TACC3 522-536 R526C/A529C (red)] (Ac-EESFCDPCEVLGTGA-NH2): under setting [1], the IC50 is 352 ± 45 µM.

`CC(=O)N[C@@H](CCC(=O)O)C(=O)N[C@@H](CCC(=O)O)C(=O)N[C@@H](CO)C(=O)NC(C)(Cc1ccccc1)C(=O)N[C@@H](CCCNC(=N)N)C(=O)N[C@@H](CC(=O)O)C(=O)N1CCC[C@H]1C(=O)N[C@@H](C)C(=O)N[C@@H](CCC(=O)O)C(=O)N[C@H](C(=O)N[C@@H](CC(C)C)C(=O)NCC(=O)N[C@H](C(=O)NCC(=O)N[C@@H](C)C(N)=O)[C@@H](C)O)C(C)C` (stereo partly drawn) [TACC3 522-536_(α-Me) -525F]: the IC50 (read-out: IC50) is no less than 500 µM.
